According to PubChem BioAssay AID504457 (Sanford-Burnham Center for Chemical Genomics, 2011):
Calls of active or inactive are those of the source.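 Rule for the calls: active = compounds with IC50 below 20 µM; inactive = the rest.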

biological target: Type-1 angiotensin II receptor (Homo sapiens) (UniProt P30556); assay: AT1 receptor antagonists, angiotensin II-stimulated, SAR follow-up, selectivity assay for APJ receptor antagonist project, cell-based, CHO-K1 AGTR1, beta-arrestin, luminescence, set 5 (AID 504457); conditions: CHO-K1 AGTR1 PathHunter beta-arrestin
Sequence (P30556 whole entry, looked up): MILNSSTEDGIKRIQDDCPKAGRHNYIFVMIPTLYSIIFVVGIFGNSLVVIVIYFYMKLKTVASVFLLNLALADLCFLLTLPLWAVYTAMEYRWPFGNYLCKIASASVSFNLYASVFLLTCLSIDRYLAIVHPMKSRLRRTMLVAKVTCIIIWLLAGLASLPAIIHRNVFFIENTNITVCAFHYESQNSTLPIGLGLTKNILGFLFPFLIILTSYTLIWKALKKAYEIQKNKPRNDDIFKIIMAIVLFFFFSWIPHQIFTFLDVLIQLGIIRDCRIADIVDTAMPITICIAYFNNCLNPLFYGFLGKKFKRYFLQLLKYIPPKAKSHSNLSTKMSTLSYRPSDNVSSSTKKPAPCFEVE

IC50	SMILES
inactive	CC1(C)CC2(CC(c3ccc(F)cc3)c3ccc(O)cc3O2)NC(=S)N1 (centres undefined)
> 79 µM (inactive)	O=c1cc(CSc2ncccn2)occ1O
> 79 µM (inactive)	C=CCOc1ccc(CSc2nc(C)cc(C)n2)cc1OC
> 79 µM (inactive)	COc1ccc(C2CC3(CC(C)(C)NC(=S)N3)Oc3cc(OC(C)=O)cc(C)c32)cc1 (centres undefined)
> 79 µM (inactive)	O=C(Oc1coc(CSc2ncccn2)cc1=O)c1ccc(Br)cc1
> 79 µM (inactive)	Cc1cc(C)nc(SCc2cc(=O)c(O)co2)n1
inactive	Cc1cc(C)nc(SCc2cc(=O)c(OC(=O)c3cc([N+](=O)[O-])ccc3Cl)co2)n1
> 79 µM (inactive)	COc1ccc(C2CC3(CC(C)(C)NC(=S)N3)Oc3cc(O)cc(C)c32)cc1 (centres undefined)
> 79 µM (inactive)	C=CCOc1ccc(CSc2nccc(C)n2)cc1
inactive	Cc1ccccc1C1CC2(CC(C)(C)NC(=S)N2)Oc2cc(O)c(Cl)cc21 (centres undefined)
> 79 µM (inactive)	Cc1ccnc(SCc2cc(=O)c(OC(=O)c3ccccc3)co2)n1
> 79 µM (inactive)	Cc1ccnc(SCc2cc(=O)c(OC(=O)c3ccc(C#N)cc3)co2)n1
> 79 µM (inactive)	COc1ccccc1NC(=O)CN1C(=O)C(=O)c2ccccc21
> 79 µM (inactive)	N#Cc1ccc(C(=O)Oc2coc(CSc3ncccn3)cc2=O)cc1
> 79 µM (inactive)	CC(=O)Oc1cc2c(cc1Cl)C(c1ccccc1Cl)CC1(CC(C)(C)NC(=S)N1)O2 (centres undefined)
> 79 µM (inactive)	C=CCOc1ccc(COc2ccccc2)cc1
> 79 µM (inactive)	Cc1ccnc(SCc2cc(=O)c(OC(=O)c3ccc([N+](=O)[O-])cc3)co2)n1
> 79 µM (inactive)	Cc1ccc(C(=O)Oc2coc(CSc3ncccn3)cc2=O)cc1[N+](=O)[O-]
> 79 µM (inactive)	COc1cc(CSc2nc(C)cc(C)n2)ccc1O
